From BindingDB's records for doi:10.1016/j.bmc.2008.05.048 (University of Canterbury, 2008)
pIC50: −log10 of the molar value.

Target: T1, Calpain-2 catalytic subunit (Ovis aries, UniProt A8IF71)
T1 sequence (A8IF71 whole entry): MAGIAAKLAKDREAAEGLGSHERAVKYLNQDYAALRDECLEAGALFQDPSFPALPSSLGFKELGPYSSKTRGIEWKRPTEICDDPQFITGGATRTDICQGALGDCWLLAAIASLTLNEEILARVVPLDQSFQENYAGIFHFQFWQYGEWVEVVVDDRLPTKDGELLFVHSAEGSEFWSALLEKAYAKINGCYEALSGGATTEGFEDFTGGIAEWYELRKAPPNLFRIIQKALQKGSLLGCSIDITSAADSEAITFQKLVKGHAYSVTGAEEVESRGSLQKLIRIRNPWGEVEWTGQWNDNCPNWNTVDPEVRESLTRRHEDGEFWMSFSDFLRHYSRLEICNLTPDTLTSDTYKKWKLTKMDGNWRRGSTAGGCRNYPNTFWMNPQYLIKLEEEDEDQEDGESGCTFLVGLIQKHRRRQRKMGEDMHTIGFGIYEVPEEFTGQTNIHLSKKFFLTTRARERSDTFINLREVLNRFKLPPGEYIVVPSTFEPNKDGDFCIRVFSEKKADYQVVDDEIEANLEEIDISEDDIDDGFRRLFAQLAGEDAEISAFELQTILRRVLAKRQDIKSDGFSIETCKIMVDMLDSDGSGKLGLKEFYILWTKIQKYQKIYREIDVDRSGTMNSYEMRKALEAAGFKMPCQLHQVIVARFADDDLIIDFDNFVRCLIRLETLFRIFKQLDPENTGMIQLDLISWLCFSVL
Assay: BODIPY Fluorescent Microplate Assay
Settings: pH 7.5; 25 °C
Procedure: Calpain inhibition assays were performed in 96-well black plates. The reaction was initiated by the addition of substrate solution. The progress of the reaction was followed for 10 min in a (BMG) Fluorostar with excitation at 485 nm and emission at 530 nm. The percentage inhibition was determined as […]. The reported IC50 values are the average of triplicate determinations.

Row | pIC50 | Compound
1 | 7.00 | CC(C)C[C@@H](C=O)NC(=O)[C@@H](NC(=O)c1cccs1)C(C)C [(2S)-3-methyl-N-[(2S)-4-methyl-1-oxopentan-2-yl]-2-(thiophen-2-ylformamido)butanamide]
2 | 7.00 | CC(C)C[C@@H](C=O)NC(=O)[C@@H](NC(=O)c1ccc(C=O)o1)C(C)C [(2S)-2-[(5-formylfuran-2-yl)formamido]-3-methyl-N-[(2S)-4-methyl-1-oxopentan-2-yl]butanamide]
3 | 7.00 | CC(C)C[C@@H](C=O)NC(=O)[C@@H](NC(=O)c1cc(C=O)c[nH]1)C(C)C [(2S)-2-[(4-formyl-1H-pyrrol-2-yl)formamido]-3-methyl-N-[(2S)-4-methyl-1-oxopentan-2-yl]butanamide]
